Assay: in vitro
Details: human, hela cells, % viability

Compound	viability at 28.5 h, 10 µM
COC(C)(C)C(=O)N1CCC2(C/C=C/Cc3ccccc3OCC(=O)NCCNC2=O)CC1 [CBK292001]	105%
O=C1COc2ccccc2C/C=C/CC2(CCN(C(=O)Cn3cccn3)CC2)C(=O)NCCN1 [CBK292003]	117%
CC(=O)NCC(=O)N1CCC2(C/C=C/CNC(=O)c3ccccc3OCCNC2=O)CC1 [CBK292006]	97.4%
O=C1NC/C=C/CC2(CCN(Cc3ccc(Cl)cn3)CC2)C(=O)NCCOc2ccccc21 [CBK292008]	103%
CC(=O)N1CC[C@H]2NC(=O)CNC(=O)C3(CCCC[C@H]2C1)CCN(C(=O)c1n[nH]c2c1CCC2)CC3 [CBK292012]	102%
CC(=O)NCC(=O)N1CC[C@@H]2NC(=O)CNC(=O)C3(CCCC[C@H]2C1)CCN(C(C)=O)CC3 [CBK292014]	91.8%
O=C1NCC2(C/C=C/CCOc3ccccc31)CCN(C(=O)Cc1cccc(F)c1)CC2 [CBK292015]	81%
O=C1NCC2(C/C=C/CCOc3ccccc31)CCN(C(=O)CCc1ccccc1)CC2 [CBK292017]	71.2%
O=C1NCC2(C/C=C/CCOc3ccccc31)CCN(C(=O)c1ccncc1)CC2 [CBK292018]	105%
O=C1COc2ccccc2C/C=C/CC2(CCN(C(=O)c3n[nH]c4c3CCC4)CC2)CN1 [CBK292019]	111%
O=C1COc2ccccc2C/C=C/CC2(CCN(C(=O)c3n[nH]c4ccccc34)CC2)CN1 [CBK292021]	88.9%
O=C1NCCNC(=O)C2(C/C=C/COc3ccccc31)CCN(C(=O)c1cncs1)CC2 [CBK292023]	95.3%
O=C1NCCNC(=O)C2(C/C=C/COc3ccccc31)CCN(C(=O)CCN1CCCCC1)CC2 [CBK292026]	110%
O=C1COc2ccccc2C/C=C/CC2(CCCNC2)CN1 (centres unmarked) [CBK292029]	91.5%
CC(=O)N1CC[C@H]2NC(=O)CNC(=O)C3(CCCC[C@H]2C1)CCN(C(=O)CC1CCOCC1)CC3 [CBK292030]	92.9%
O=C1COc2ccccc2C/C=C/C[C@H]2CNCC[C@H]2N1 [CBK292033]	101%
CN1C(=O)c2ccccc2OCCCCC[C@H]2[C@@H]1CCCN2C(=O)c1cc2c([nH]c1=O)CCC2 [CBK292034]	114%
O=C1COc2ccccc2C/C=C/CC2(CCCN(C(=O)CN3CSCC3=O)C2)CN1 (centres unmarked) [CBK292035]	116%
Cc1noc(C)c1CCC(=O)N1CC[C@H]2NC(=O)c3ccccc3OCCCCC[C@H]2C1 [CBK292036]	96.5%
O=C1N[C@@H]2CCN(C(=O)COc3cccnc3)C[C@@H]2CCCCCOc2ccccc21 [CBK292037]	94.6%
O=C1N[C@@H]2CCN(C(=O)CCn3ccccc3=O)C[C@@H]2CCCCCOc2ccccc21 [CBK292039]	94.2%
NC(=O)CN1CCC[C@@H]2NC(=O)COc3ccccc3C(=O)N[C@@H]3CCOC[C@@H]3C/C=C/C[C@@H]21 [CBK292041]	103%
CC(=O)N1CCC[C@H]2NC(=O)CNC(=O)C3(C/C=C/C[C@H]21)CCN(c1ncccn1)CC3 [CBK292042]	110%
Cc1ccn(CC(=O)N2CC[C@H]3NC(=O)COc4ccccc4CCCC[C@@H]3C2)c(=O)c1 [CBK292045]	99.2%
O=C(CN1CC[C@H]2NC(=O)COc3ccccc3CCCC[C@@H]2C1)NCc1ccccn1 [CBK292046]	96.7%

Compound	viability at 28.5 h, 10 µM
O=C1COc2ccccc2CCCC[C@@H]2CN(C(=O)CN3C(=O)CNC3=O)CC[C@H]2N1 [CBK292047]	92.7%
O=C1COc2ccccc2CCCC[C@@H]2CN(C(=O)Cn3ccc(=O)[nH]c3=O)CC[C@H]2N1 [CBK292048]	102%
O=C1COc2ccccc2C/C=C/CC2(CCCN(C(=O)Cn3ccnc3)C2)CN1 (centres unmarked) [CBK292050]	107%
O=C1NCCCNC(=O)C2(C/C=C/CCOc3ccccc31)CCN(C(=O)CN1CCCC1)CC2 [CBK292052]	101%
CN1CCOc2ccccc2C(=O)NC/C=C/CC2(CCN(C(=O)c3ccc(F)cc3)CC2)C1=O [CBK292055]	92%
Cc1ccc(CN2CC[C@H]3NC(=O)c4ccccc4OCC/C=C/C[C@H]3C2)cn1 [CBK292056]	98.6%
CC(=O)N1CCC[C@H]2NC(=O)CNC(=O)C3(C/C=C/C[C@H]21)CCN(C(=O)c1ccon1)CC3 [CBK292057]	109%
Cc1nonc1CC(=O)N1CCC[C@@H]2[C@H]1C/C=C/Cc1ccccc1OCC(=O)N2C [CBK292062]	88.3%
CN1C(=O)COc2ccccc2C/C=C/C[C@@H]2[C@H]1CCCN2S(=O)(=O)N1CCOCC1 [CBK292063]	90.6%
CC(C)C(=O)N1CCC[C@@H]2NC(=O)c3ccccc3OCC/C=C/C[C@@H]21 [CBK292064]	101%
O=C1CNC(=O)C2(C/C=C/C[C@H]3COCC[C@@H]3N1)CCN(C(=O)c1cccc(Cl)c1)CC2 [CBK292066]	111%
CN1C(=O)COc2ccccc2C/C=C/C[C@@H]2[C@H]1CCCN2S(=O)(=O)c1cccnc1 [CBK292067]	102%
Cc1nccc(C(=O)N2CCC3(C/C=C/C[C@H]4COCC[C@H]4NC(=O)CNC3=O)CC2)n1 [CBK292072]	103%
O=C1CNC(=O)C2(C/C=C/C[C@H]3COCC[C@H]3N1)CCN(Cc1cccc3[nH]ccc13)CC2 [CBK292073]	110%
O=C1NCCNC(=O)C2(CCCCOc3ccccc31)CCNCC2 [CBK292074]	108%
CN1C(=O)c2ccccc2OCCCCC[C@H]2NCCC[C@H]21 [CBK292075]	110%
CN1C(=O)COc2ccccc2C/C=C/C[C@H]2CNCC[C@H]21 [CBK292076]	107%
Cc1ccc(C(=O)N2CCC[C@@H]3NC(=O)c4ccccc4OCC/C=C/C[C@@H]32)c(O)n1 [CBK292080]	98.2%
Cc1ccn(CCC(=O)N2CCC[C@@H]3NC(=O)c4ccccc4OCC/C=C/C[C@@H]32)n1 [CBK292082]	109%
CN1C(=O)COc2ccccc2C/C=C/C[C@@H]2[C@H]1CCCN2C(=O)c1cnn2cccnc12 [CBK292083]	109%
O=C1NC/C=C/CC2(CCN(Cc3c[nH]c4ccccc34)CC2)C(=O)NCCOc2ccccc21 [CBK292085]	100%
CN1C(=O)COc2ccccc2C/C=C/C[C@H]2CN(C(=O)C3CCC3)CC[C@H]21 [CBK292087]	95.1%
CC(=O)N1CCC[C@H]2NC(=O)CNC(=O)C3(C/C=C/C[C@H]21)CCN(CC(C)C)CC3 [CBK292088]	106%
CN1C(=O)COc2ccccc2CCCC[C@@H]2[C@H]1CCCN2C(=O)CCCn1cccn1 [CBK292090]	111%
Cc1nc(CC(=O)N2CCC[C@@H]3[C@H]2CCCCc2ccccc2OCC(=O)N3C)cs1 [CBK292091]	113%

Compound	viability at 28.5 h, 10 µM
CC(C)N1CCC2(C/C=C/CNC(=O)c3ccccc3OCCNC2=O)CC1 [CBK292094]	98.7%
O=C1NC/C=C/CC2(CCN(C(=O)c3cccnn3)CC2)C(=O)NCCOc2ccccc21 [CBK292095]	108%
O=C1N[C@H]2CCCN(C(=O)Cn3cccnc3=O)[C@H]2CCCCCOc2ccccc21 [CBK292096]	109%
O=C1COc2ccccc2C/C=C/C[C@H]2CN(C(=O)c3noc4c3CCCC4)CC[C@H]2N1 [CBK292099]	116%
Cn1cc(C(=O)N2CCCC3(C/C=C/COc4ccccc4C(=O)NCCNC3=O)C2)cn1 (centres unmarked) [CBK292102]	96.4%
CC(=O)N1CCC2(C/C=C/C[C@H]3CN(C(=O)Cc4cccc(F)c4)CC[C@H]3NC(=O)CNC2=O)CC1 [CBK292103]	93.6%
O=C1N[C@H]2CCCN(C(=O)c3cncs3)[C@H]2CCCCCOc2ccccc21 [CBK292106]	98.2%
COc1ccccc1CN1CC[C@H]2NC(=O)CNC(=O)C3(C/C=C/C[C@H]2C1)CCN(C(C)=O)CC3 [CBK292107]	111%
CC(=O)N1CCC2(C/C=C/C[C@H]3CN(C(=O)CC4CCOCC4)CC[C@H]3NC(=O)CNC2=O)CC1 [CBK292109]	98.8%
CC(=O)N1CCC2(C/C=C/C[C@H]3CN(C(=O)CCC4CCCC4)CC[C@H]3NC(=O)CNC2=O)CC1 [CBK292111]	87%
CN1C(=O)c2ccccc2OCCCCC[C@H]2[C@@H]1CCCN2C(=O)c1ccccc1Cn1cncn1 [CBK292114]	110%
Cc1noc(C)c1CCC(=O)N1CC[C@H]2NC(=O)COc3ccccc3C/C=C/C[C@H]2C1 [CBK292115]	110%
O=C1COc2ccccc2C/C=C/C[C@H]2CN(C(=O)CN3CCCCCC3=O)CC[C@H]2N1 [CBK292116]	89.7%
CC(=O)NC1(CC(=O)N2CC[C@H]3NC(=O)COc4ccccc4C/C=C/C[C@H]3C2)CCCCC1 [CBK292117]	91.3%
CN1C(=O)COc2ccccc2CCCC[C@@H]2[C@H]1CCCN2C(=O)CNS(C)(=O)=O [CBK292118]	113%
CC(=O)N1CC[C@H]2NC(=O)CNC(=O)C3(CCCC[C@H]2C1)CCN(Cc1ccc(Cl)cc1)CC3 [CBK292119]	90.5%
CC(=O)N1CC[C@H]2NC(=O)CNC(=O)C3(CCCC[C@H]2C1)CCN(C(=O)CN1CCCCC1)CC3 [CBK292120]	104%
CC(=O)N1CCC2(CCCC[C@H]3CN(C(=O)C(C)C)CC[C@@H]3NC(=O)CNC2=O)CC1 [CBK292121]	102%
Cn1cnc(C(=O)N2CCC[C@@H]3NC(=O)c4ccccc4OCCCCC[C@@H]32)c1 [CBK292122]	114%
CS(=O)(=O)NCC(=O)N1CCC2(CCCCOc3ccccc3C(=O)NCCNC2=O)CC1 [CBK292123]	112%
O=C1COc2ccccc2C/C=C/CC2(CCN(CC(=O)N3CCCC3)CC2)CN1 [CBK292126]	93.7%
O=C1COc2ccccc2C/C=C/CC2(CCN(C(=O)CCc3cccnc3)CC2)CN1 [CBK292127]	90.8%
O=C1COc2ccccc2C/C=C/CC2(CCN(CC3CCOCC3)CC2)CN1 [CBK292128]	104%
CC(=O)N1CCC[C@H]2NC(=O)CNC(=O)C3(C/C=C/C[C@H]21)CCN(CC1CCC1)CC3 [CBK292129]	103%

Reference: publication PMC12040169 (PLOS Biology, 2025)
